Experimental data from patent publication US5789431A, “Naphthoquinone antitumor compound and method” (The University of North Carolina at Chapel Hill, priority 1996, dated 1998).
Like-named read-outs stand apart in the source and are kept apart here.

Assays:
[1] = tested on: U 251; assay: in vitro CNS cancer cell growth inhibition (NCI screen)
[2] = tested on: OVCAR-5; assay: in vitro ovarian cancer cell growth inhibition (NCI screen)
[3] = tested on: NCI-H23; assay: in vitro non-small cell lung cancer cell growth inhibition (NCI screen)
[4] = tested on: human tumor cell lines; type: cell-based; settings: for GI50: Homo sapiens
[5] = tested on: KB cells; assay: in vitro cytotoxicity screening against KB cells in culture; type: cell-based; settings: Homo sapiens, calculated from 2 data points across 50% inhibition in cell growth, read-out: ED50 (the source's name)
Experimental: Compound 5 was assayed for in vitro cytotoxicity against KB cells in culture, following the protocol of Monks. The KB cell line was obtained from the American Type Culture Collection, Rockville, MD, and cells were adapted to grow in antibiotic-free RPMI-1640 medium supplemented with […] calf serum.
The ED50 value was calculated mathematically from 2 data points across 50% inhibition in cell growth.

[6] = tested on: OVCAR-3; assay: in vitro ovarian cancer cell growth inhibition (NCI screen)
[7] = tested on: KM 12; assay: in vitro colon cancer cell growth inhibition (NCI screen)
[8] = tested on: NCI-H522; assay: in vitro non-small cell lung cancer cell growth inhibition (NCI screen)
[9] = tested on: SF-268; assay: in vitro CNS cancer cell growth inhibition (NCI screen)
[10] = tested on: OVCAR-4; assay: in vitro ovarian cancer cell growth inhibition (NCI screen); settings: OVACR-4
[11] = tested on: OVCAR-8; assay: as above
[12] = tested on: HOP-92; assay: in vitro non-small cell lung cancer cell growth inhibition (NCI screen)
[13] = tested on: HCT-116; assay: in vitro colon cancer cell growth inhibition (NCI screen)
[14] = tested on: SW 620; assay: as above
[15] = tested on: COLO-205; assay: as above
[16] = tested on: MCF-7; assay: in vitro breast cancer cell growth inhibition (NCI screen)
[17] = tested on: RXF-393; assay: in vitro renal cancer cell growth inhibition (NCI screen)
[18] = tested on: SF-295; assay: in vitro CNS cancer cell growth inhibition (NCI screen)
[19] = tested on: 786-0; assay: in vitro renal cancer cell growth inhibition (NCI screen)
[20] = tested on: HS 578T; assay: in vitro breast cancer cell growth inhibition (NCI screen)
[21] = tested on: SNB-75; assay: in vitro CNS cancer cell growth inhibition (NCI screen)
[22] = tested on: SK-OV-3; assay: in vitro ovarian cancer cell growth inhibition (NCI screen)
[23] = tested on: UACC-62; assay: in vitro melanoma cell growth inhibition (NCI screen)
[24] = cancer cell panel, general / most cell lines, read-out: logGI50 values in the cancer cell line panel (converted)

Question: Which “cytotoxicity log GI50” value [1] does the source give for `CCn1c(C)nc2c1C(=O)c1ccccc1C2=O` [Compound 5, 1-ethyl-2-methylnaphth-[2,3-d]imidazole-4,9-dione] here?
Answer: -5.72 M

Question: And the “cytotoxicity log GI50” value [2]?
Answer: -6.11 M

Question: And the “cytotoxicity log GI50” value [3]?
Answer: -5.81 M

Question: And the GI50 ([4]; OVCAR-3, -4, -5, and -8 ovarian cancer cell lines, read-out: logGI50 values (range over cell lines) (converted))?
Answer: 50.1 to 794 nM

Question: And the GI50 [4, 24]?
Answer: 100 to 1000 nM

Question: And the “cytotoxicity against tumor cells (in words)” value ([4]; cancer cell line panel)?
Answer: most active naphth[2,3-d]imidazole-4,9-dione derivative

Question: What about the IC50 [5] of the same compound?
Answer: < 0.4 µg/mL

Question: And the “cytotoxicity log GI50” value [6]?
Answer: -7.30 M

Question: And the “cytotoxicity log GI50” value [7]?
Answer: -5.76 M

Question: And the “cytotoxicity log GI50” value [8]?
Answer: -6.62 M

Question: And the “cytotoxicity log GI50” value [9]?
Answer: -6.48 M

Question: What about the “cytotoxicity log GI50” value [10] of the same compound?
Answer: -6.49 M

Question: And the “cytotoxicity log GI50” value [11]?
Answer: -6.31 M

Question: And the “cytotoxicity log GI50” value [12]?
Answer: -5.79 M

Question: And the “cytotoxicity log GI50” value [13]?
Answer: -5.91 M

Question: And the “cytotoxicity log GI50” value [14]?
Answer: -6.17 M

Question: What about the “cytotoxicity log GI50” value [15] of the same compound?
Answer: -6.45 M

Question: What about the “cytotoxicity log GI50” value [16] of the same compound?
Answer: -6.17 M

Question: What does the source list for `CCn1c(-c2cc(OC)cc(OC)c2)nc2c1C(=O)c1ccccc1C2=O` [Compound 28]?
Answer: cytotoxicity log GI50 [17]: -4.86 M; cytotoxicity log GI50 [18]: -4.53 M; cytotoxicity log GI50 [19]: -4.34 M; GI50 [4, 24]: ~10000 nM; cytotoxicity log GI50 [8]: -5.19 M; cytotoxicity log GI50 [20]: -4.44 M; cytotoxicity log GI50 [21]: -4.65 M; cytotoxicity log GI50 [22]: -5.41 M; cytotoxicity log GI50 [23]: -4.69 M
